Tests used:
Pseudomonas aeruginosa [1] = assay: Growth/no growth determinations made at 4, 5 and 6 hours by trained recurrent neural network (24 GRU) model from test-well organism counts; type: cell-based; conditions: for 4 Hour Call: model output 0-1 at 4 hours; for 5 Hour Call: model output 0-1 at 5 hours; for 6 Hour Call: model output 0-1 at 6 hours
Text: FIG. 8 provides an illustration of how data that can be used in an optimized AST method 101 can be captured from a test well. Test well 20 is embodied by a “384” style test well, having a clear viewing bottom. The volume of inoculum in test well 20 may be set to 20 microliters to reduce the amount of materials such as bulk diluents required by AST method 101 and/or minimize light artifacts and provide sampling of a consistent number of microbes from the 1:250 dilution of the 0.5 MacFarland inoculum. Decreasing the volume of inoculum in test well 20 generally increases the light artifacts. In some instances, capturing a single vertical plane 103 at 20× objective whereby AST camera 35 is set at 0.33 microns/pixel may be sufficient for sampling the inoculum and ensuring that each individual microbe is recognizable. However, these parameters are configurable and may change as desired by the user or the underlying needs of the system. Capturing three focal sites spaced about 5 microns apart within single vertical plane 103 may also provide a sufficient number of microbes in the sample to count for use in optimized AST method 101. These three focal sites are labeled site 105, site 107, and site 109 in FIG. 8. In an exemplary version of optimized AST method 101, each focal site is approximately 700×700 microns within single vertical plane 103, rather than capturing three sites in three different vertical planes. AST camera 35, optics system 9, and computer 49 are configured to capture an image of each focal site in consecutive time periods, manipulate each of these images, and thereafter use the data derived from these manipulated images to make a MIC determination.
Once data extraction step 117 derives the desired information from segmented image 143, image analysis cycle 102 terminates. Optimized AST method 101 iteratively performs image analysis cycle 102 at set time intervals to determine how the microbes in each test well 20 are changing and reacting to the particular antimicrobic dilution pairing. Further, optimized AST method 101 iteratively performs image analysis cycle 102 on each test well 20 associated with the microbes to determine how the microbes are reacting to each concentration of the antimicrobic dilution. For example, presume the microbes being tested are E. coli bacteria and three test wells 20 are being tested, with each test well 20 having a 20-microliter solution therein. The first test well 20 may contain an antimicrobic dilution of 1 microgram per milliliter (μg/ml), the second test well 20 may contain an antimicrobic dilution of 2 μg/ml, and the third test well 20 may contain an antimicrobic dilution of 4 μg/ml. Optimized AST method 101 performs image analysis cycle 102 on each of the three test wells at each set time interval to determine (a) how each antimicrobic dilution is affecting the microbes; and (b) how each antimicrobic dilution is performing relative to the other antimicrobic dilutions. If the data indicates the 1 μg/ml antimicrobic dilution is as effective as the 2 and 4 μg/ml antimicrobic dilutions at neutralizing the microbes, the 1 μg/ml antimicrobic dilution is the MIC.
In step 163, the MIC is determined. The determination is based on the data collected during each iteration of image analysis cycle 102 for all of the antimicrobic dilutions for a microbial sample as well as for a control well where no antimicrobial agent was present. As described in the following section, this determination may involve processing the collected data with a machine learning model that had previously been trained to make determinations of whether an antimicrobial dilution in a test well would inhibit growth and then determining the MIC based on the test well with the lowest concentration where the machine learning model made a determination that growth would be inhibited. […]

Pseudomonas aeruginosa [2] = assay: Target growth or no growth label determined after 16 hours; type: cell-based; set-up: key: a value of 1 could be interpreted as a determination that growth would not be inhibited; a value of 0 could be interpreted as a determination that growth would be inhibited; conditions: growth label after 16 hours
Text: As an illustration of how these types of training approaches could be applied in practice, consider tables 5-12, below. In those tables, tables 5-9 provides GRU kernel weights, GRU recurrent weights, GRU bias weights, dense kernel weights, and a dense bias weight for a model implemented using the Keras API (an open source project governed by the Keras Special Interest Group and available at https://keras.io) and Tensorflow backend (an open source machine learning platform developed by Google, Inc. and available at https://www.tensorflow.org/) comprising a network cluster with 24 GRUs trained to make MIC determinations at 4, 5 and 6 hours based on training data for 56 microorganism strains when combined with various antimicrobials and the various combinations were labeled with growth or no growth information determined after 16 hours. In particular, table 5 provides a 1×72 array, in which the first 24 values would be mapped to Wz, the second 24 values would be mapped to Wr and the third 24 values would be mapped to Wh in an embodiment following FIG. 19. Table 6 provides a 72×24 array, in which the first 24×24 array (i.e., the first 24 bracketed sets of values) would be mapped to Uz, the next 24×24 array would be mapped to Ur and the third 24×24 array would be mapped to Uh in an embodiment following FIG. 19. Table 7 provides a 1×72 array, in which the first 24 values would be mapped to bz, the second 24 values would be mapped to br and the third 24 values would be mapped to bh in an embodiment following FIG. 19. Table 8 provides a 1×1344 array of values which would be multiplied by the output of the combination function 1806 in the dense layer 1807. Table 9 provides a bias value which would be added to the output of the dense layer 1807 before it was provided to the activation function 1808. Table 10 provides growth/no growth determinations made at 4, 5 and 6 hours by a system trained as described above for Pseudomonas aeruginosa and the drug Ceftazidime. Tables 11-12 provide microorganisms and antimicrobials included in the training data described above and for which the model was confirmed to be effective.

In the case of `CC(C)(O/N=C(\C(=O)N[C@@H]1C(=O)N2C(C(=O)[O-])=C(C[n+]3ccccc3)CS[C@H]12)c1csc(N)n1)C(=O)O` [Ceftazidime], the “4 Hour Call” value (Pseudomonas aeruginosa [1]; Dilution 0.03) is reported as 1, the “5 Hour Call” value (Pseudomonas aeruginosa [1]; Dilution 0.03) is reported as 1 and the “6 Hour Call” value (Pseudomonas aeruginosa [1]; Dilution 0.03) is reported as 1. The “4 Hour Call” value (Pseudomonas aeruginosa [1]; Dilution 0.06) was 1, the “5 Hour Call” value (Pseudomonas aeruginosa [1]; Dilution 0.06) was 1 and the “6 Hour Call” value (Pseudomonas aeruginosa [1]; Dilution 0.06) was 1. The “4 Hour Call” value (Pseudomonas aeruginosa [1]; Dilution 0.12) was 1, the “5 Hour Call” value (Pseudomonas aeruginosa [1]; Dilution 0.12) was 1 and the “6 Hour Call” value (Pseudomonas aeruginosa [1]; Dilution 0.12) was 1. The “4 Hour Call” value (Pseudomonas aeruginosa [1]; Dilution 0.25) was 1, the “5 Hour Call” value (Pseudomonas aeruginosa [1]; Dilution 0.25) was 1 and the “6 Hour Call” value (Pseudomonas aeruginosa [1]; Dilution 0.25) was 1. The “4 Hour Call” value (Pseudomonas aeruginosa [1]; Dilution 0.5) was 1, the “5 Hour Call” value (Pseudomonas aeruginosa [1]; Dilution 0.5) was 1 and the “6 Hour Call” value (Pseudomonas aeruginosa [1]; Dilution 0.5) was 1. For the same molecule, the “4 Hour Call” value (Pseudomonas aeruginosa [1]; Dilution 1) was 0.2105, the “5 Hour Call” value (Pseudomonas aeruginosa [1]; Dilution 1) was 0.9399 and the “6 Hour Call” value (Pseudomonas aeruginosa [1]; Dilution 1) was 0.9518. For the same molecule, the “4 Hour Call” value (Pseudomonas aeruginosa [1]; Dilution 2) was 0.003836, the “5 Hour Call” value (Pseudomonas aeruginosa [1]; Dilution 2) was 4.89E−05 and the “6 Hour Call” value (Pseudomonas aeruginosa [1]; Dilution 2) was 3.77E−06. The “4 Hour Call” value (Pseudomonas aeruginosa [1]; Dilution 4) was 0.002258, the “5 Hour Call” value (Pseudomonas aeruginosa [1]; Dilution 4) was 7.26E−06 and the “6 Hour Call” value (Pseudomonas aeruginosa [1]; Dilution 4) was 2.27E−07. The “4 Hour Call” value (Pseudomonas aeruginosa [1]; Dilution 8) was 0.0001531, the “5 Hour Call” value (Pseudomonas aeruginosa [1]; Dilution 8) was 0.0005926 and the “6 Hour Call” value (Pseudomonas aeruginosa [1]; Dilution 8) was 0.000432. For the same molecule, the “4 Hour Call” value (Pseudomonas aeruginosa [1]; Dilution 16) was 0.003935, the “5 Hour Call” value (Pseudomonas aeruginosa [1]; Dilution 16) was 0.001447 and the “6 Hour Call” value (Pseudomonas aeruginosa [1]; Dilution 16) was 2.32E−06. For the same molecule, the “4 Hour Call” value (Pseudomonas aeruginosa [1]; Dilution 32) was 0.009609, the “5 Hour Call” value (Pseudomonas aeruginosa [1]; Dilution 32) was 5.69E−05 and the “6 Hour Call” value (Pseudomonas aeruginosa [1]; Dilution 32) was 1.23E−06. The “4 Hour Call” value (Pseudomonas aeruginosa [1]; Dilution 64) was 0.001147, the “5 Hour Call” value (Pseudomonas aeruginosa [1]; Dilution 64) was 1.21E−05 and the “6 Hour Call” value (Pseudomonas aeruginosa [1]; Dilution 64) was 1.64E−06. For the same molecule, the Target (Pseudomonas aeruginosa [2]; Dilution 0.03) was 1, the Target (Pseudomonas aeruginosa [2]; Dilution 0.06) was 1 and the Target (Pseudomonas aeruginosa [2]; Dilution 0.12) was 1. The Target (Pseudomonas aeruginosa [2]; Dilution 0.25) was 1, the Target (Pseudomonas aeruginosa [2]; Dilution 0.5) was 1 and the Target (Pseudomonas aeruginosa [2]; Dilution 1) was 1. It also gave a Target (Pseudomonas aeruginosa [2]; Dilution 2) of 0, a Target (Pseudomonas aeruginosa [2]; Dilution 4) of 0 and a Target (Pseudomonas aeruginosa [2]; Dilution 8) of 0. It also gave a Target (Pseudomonas aeruginosa [2]; Dilution 16) of 0, a Target (Pseudomonas aeruginosa [2]; Dilution 32) of 0 and a Target (Pseudomonas aeruginosa [2]; Dilution 64) of 0.

Reference: patent US20230416801A1, “ANTIMICROBIC SUSCEPTIBILITY TESTING USING RECURRENT NEURAL NETWORKS” (Beckman Coulter, Inc., priority 2020, published 2023)
